From article PMC10281575, “PfCRT mutations conferring piperaquine resistance in falciparum malaria shape the kinetics of quinoline drug binding and transport” (PLOS Pathogens, 2023)
Changes are numbered by the printed parent chain. Values joined by “and” are separate entries in the source; they are usually repeats but may differ in a detail not shown here. Equal entries are not always repeated. Where two headings read alike, the source gives them in different places.

Columns and labels:
PfCRT^Dd2_S257A = target: T1, PfCRT^Dd2_S257A (Plasmodium falciparum, UniProt Q8IBZ9, A220S/I356T/K76T/M74I/N326S/N75E/Q271E/R371I/S257A); assay: PfCRT-mediated CQ transport in oocytes expressing PfCRT^Dd2_S257A; assay type: cell-based; settings: S6 Fig; per biological replicate
T1 construct: expressed in transfected cells; host or cells: Xenopus laevis oocytes
T1 sequence (Q8IBZ9 1-424 M74I/N75E/K76T/A220S/S257A/Q271E/N326S/I356T/R371I): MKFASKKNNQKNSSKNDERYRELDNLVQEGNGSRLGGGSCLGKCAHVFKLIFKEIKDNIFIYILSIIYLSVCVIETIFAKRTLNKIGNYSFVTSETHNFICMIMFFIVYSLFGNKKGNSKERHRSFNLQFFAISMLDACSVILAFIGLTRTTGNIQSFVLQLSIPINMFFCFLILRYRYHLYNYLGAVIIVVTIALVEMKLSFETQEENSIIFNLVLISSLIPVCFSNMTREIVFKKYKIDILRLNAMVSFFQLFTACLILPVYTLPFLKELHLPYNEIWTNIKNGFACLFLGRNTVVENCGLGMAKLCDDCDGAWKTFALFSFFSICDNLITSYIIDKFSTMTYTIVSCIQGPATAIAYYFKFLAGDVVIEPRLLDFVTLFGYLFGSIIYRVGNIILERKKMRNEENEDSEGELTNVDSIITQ
Text: (§1) The docking results reflect the differences in the experimentally measured affinities of the two compounds for PfCRT^Dd2, with CQ having less favorable docking scores compared to PPQ (S1 Table). […] In this pose, CQ forms polar contacts via the two positively charged nitrogens: the nitrogen of the diethylamino tail makes a salt bridge with E75 on TM1 and the nitrogen of the 4-amminoquinoline ring makes a hydrogen bond with S257 on TM7. Hydrophobic contacts are established by the quinoline ring with I260, V141, and F145.
(§2) Drug transport assays were performed as previously described. Briefly, measurements of radiolabeled drug uptake were made over 1 h, unless otherwise specified. […] Where specified, one or more unlabeled drugs were also present at the indicated concentrations. […] The radioactivity in the sample was measured using a liquid scintillation analyser Tri-Carb 4910 TR (PerkinElmer). Water-injected oocytes were analyzed in parallel as a negative control. The buffer from each condition was measured in duplicate in parallel to each experiment to transform counts per minute into pmol of drug. Drug uptake attributable to PfCRT was determined by subtracting the background uptake from water-injected oocytes from that of PfCRT-expressing oocytes. […]

PfCRT^Dd2 = target: T2, PfCRT^Dd2 (Plasmodium falciparum, UniProt Q8IBZ9, A220S/I356T/K76T/M74I/N326S/N75E/Q271E/R371I); settings: read-out: apparent Km for CQ on PfCRT^Dd2, cited from earlier work
T2 sequence (Q8IBZ9 1-424 M74I/N75E/K76T/A220S/Q271E/N326S/I356T/R371I): T1 sequence (Q8IBZ9 1-424 M74I/N75E/K76T/A220S/S257A/Q271E/N326S/I356T/R371I) with A257S

PfCRT^Dd2_V141A = target: T3, PfCRT^Dd2_V141A (Plasmodium falciparum, UniProt Q8IBZ9, A220S/I356T/K76T/M74I/N326S/N75E/Q271E/R371I/V141A); assay: PfCRT-mediated CQ transport in oocytes expressing PfCRT^Dd2_V141A; assay type: cell-based; settings: S6 Fig; per biological replicate
T3 construct: expressed in transfected cells; host or cells: Xenopus laevis oocytes
T3 sequence (Q8IBZ9 1-424 M74I/N75E/K76T/V141A/A220S/Q271E/N326S/I356T/R371I): T1 sequence (Q8IBZ9 1-424 M74I/N75E/K76T/A220S/S257A/Q271E/N326S/I356T/R371I) with V141A, A257S
Text: as §1, §2

PfCRT^Dd2_I260A = target: T4, PfCRT^Dd2_I260A (Plasmodium falciparum, UniProt Q8IBZ9, A220S/I260A/I356T/K76T/M74I/N326S/N75E/Q271E/R371I); assay: PfCRT-mediated CQ transport in oocytes expressing PfCRT^Dd2_I260A; assay type: cell-based; settings: S6 Fig; per biological replicate
T4 construct: expressed in transfected cells; host or cells: Xenopus laevis oocytes
T4 sequence (Q8IBZ9 1-424 M74I/N75E/K76T/A220S/I260A/Q271E/N326S/I356T/R371I): T1 sequence (Q8IBZ9 1-424 M74I/N75E/K76T/A220S/S257A/Q271E/N326S/I356T/R371I) with A257S, I260A
Text: as §1, §2

CCN(CC)CCCC(C)Nc1ccnc2cc(Cl)ccc12 (centres unmarked) [CQ, chloroquine]
PfCRTDd2_S257A-mediated CQ transport (PfCRT^Dd2_S257A): 1.610 pmol oocyte-1 h-1 and 1.360 pmol oocyte-1 h-1 and 1.980 pmol oocyte-1 h-1
Km (PfCRT^Dd2; ref Bellanca et al., 2014): 250 ± 30 µM
Km (PfCRT^Dd2; ref Martin et al. 2009): 245 ± 3 µM
PfCRTDd2_V141A-mediated CQ transport (PfCRT^Dd2_V141A): 1.080 pmol oocyte-1 h-1 and 0.460 pmol oocyte-1 h-1 and 1.360 pmol oocyte-1 h-1
PfCRTDd2_I260A-mediated CQ transport (PfCRT^Dd2_I260A): 2.260 pmol oocyte-1 h-1 and 2.400 pmol oocyte-1 h-1 and 3.540 pmol oocyte-1 h-1
